In patent US20250163104A1, “MACROCYCLIC IMMUNOMODULATORS” (priority 2021, published 2025):
Where a SMILES comes first, the peptide text is derived from it. Bridges are numbered along the chain shown (N, C = ends). [ ]: non-standard residue; d: D form. The star is where a group is joined. Ala(6-(2-MePh)pyridin-3-yl) = Cc1ccccc1-c1ccc(C[C@H](N)C(=O)O)cn1; Phe(3-CF3) = N[C@@H](Cc1cccc(C(F)(F)F)c1)C(=O)O; Ala(morpholin-4-yl) = N[C@@H](CN1CCOCC1)C(=O)O; Phe(4-COOH) = N[C@@H](Cc1ccc(C(=O)O)cc1)C(=O)O; Bip = N[C@@H](Cc1ccc(-c2ccccc2)cc1)C(=O)O; Phe(3-Me) = Cc1cccc(C[C@H](N)C(=O)O)c1; 4Pal = N[C@@H](Cc1ccncc1)C(=O)O; Cha = N[C@@H](CC1CCCCC1)C(=O)O; Cit = NC(=O)NCCC[C@H](N)C(=O)O; dCha = N[C@H](CC1CCCCC1)C(=O)O; Carboxymethyl = O=C(O)C*; Nle = CCCC[C@H](N)C(=O)O; Orn = NCCC[C@H](N)C(=O)O; Pra = C#CC[C@H](N)C(=O)O; Dab = NCC[C@H](N)C(=O)O; Dap = NC[C@H](N)C(=O)O

molecular target: T1, human PD-1 / PD-L1-Ig binding on Jurkat cell line over-expressing human PD-1 (Jurkat-PD-1) (Homo sapiens, UniProt Q15116); assay: Jurkat-PD-1 Cell Binding High-Content Screening Assay (CBA); assay type: cell-based; conditions: Jurkat-PD-1 cells, PE-labeled PD-L1-Ig 20 nM final; read-out: Jurkat HPD1_PDL1 IC50
T1 construct: expressed in transfected cells; host or cells: Jurkat
T1 sequence (Q15116 25-288): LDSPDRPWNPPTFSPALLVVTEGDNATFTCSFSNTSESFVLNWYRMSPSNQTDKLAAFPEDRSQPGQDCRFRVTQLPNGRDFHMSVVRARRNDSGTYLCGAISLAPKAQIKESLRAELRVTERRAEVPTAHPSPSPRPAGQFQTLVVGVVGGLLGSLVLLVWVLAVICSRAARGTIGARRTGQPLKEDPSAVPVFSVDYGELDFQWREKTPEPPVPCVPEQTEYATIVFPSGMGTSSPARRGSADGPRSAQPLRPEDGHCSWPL
In short: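 PE-PD-L1-Ig 20 nM final; cells in DMEM/10% FCS; cpd pre-incubation 2 h, 37° C; ligand 1 h; PFA fix + Hoechst 33342; high-content imaging read-out.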

| Structure (SMILES) | IC50 |
| --- | --- |
| CC(C)[C@@H]1NC(=O)[C@H](Cc2c[nH]c3ccccc23)NC(=O)[C@H](CC(=O)O)NC(=O)[C@H](Cc2ccc(C(=O)O)cc2)NC(=O)[C@H](Cc2ccc(OCC(=O)O)cc2)NC(=O)CSC[C@@H](C(=O)N[C@@H](C)C(N)=O)NC(=O)[C@H]([C@@H](C)O)NC(=O)[C@H](C(C)C)NC(=O)[C@H](CC2CCCCC2)NC(=O)[C@H](CCN)NC(=O)[C@@H](CC2CCCCC2)NC(=O)[C@H](CCCN)NC(=O)[C@H](C(C)C)NC(=O)[C@H](Cc2ccc(-c3ccccc3)cc2)NC1=O [Compound 1634] ({CH2CO}-Y(Carboxymethyl)[Phe(4-COOH)]DWV[Bip]V[Orn][dCha][Dab][Cha]VTCA-NH2; thioether N-14) | 20.3 nM |
| CC(C)C[C@H]1NC(=O)[C@H](CCCN)NC(=O)[C@H](CCCNC(N)=O)NC(=O)[C@H](Cc2ccc(-c3ccccc3)cc2)NC(=O)[C@H](C(C)C)NC(=O)[C@H](Cc2c[nH]c3ccccc23)NC(=O)[C@H](CC(=O)O)NC(=O)[C@H](Cc2ccc(OCC(=O)O)cc2)NC(=O)[C@H](CN)NC(=O)CSC[C@@H](C(=O)N[C@@H](C)C(N)=O)NC(=O)[C@H]([C@@H](C)O)NC(=O)[C@H]([C@@H](C)O)NC(=O)[C@H](CC2CCCCC2)NC(=O)[C@H](CCN)NC1=O [Compound 1318] ({CH2CO}-[Dap]Y(Carboxymethyl)DWV[Bip][Cit][Orn][dL][Dab][Cha]TTCA-NH2; thioether N-14) | 10.6 nM |
| CCCC[C@@H]1NC(=O)[C@H](Cc2c[nH]c3ccccc23)NC(=O)[C@H](CC(=O)O)NC(=O)[C@H](Cc2ccc(OCC(=O)O)cc2)NC(=O)[C@H](CN)NC(=O)CSC[C@@H](C(=O)N[C@@H](C)C(N)=O)NC(=O)[C@H]([C@@H](C)O)NC(=O)[C@H](C(C)C)NC(=O)[C@H](CC2CCCCC2)NC(=O)[C@H](CCN)NC(=O)[C@@H](CC(C)C)NC(=O)[C@H](CCCN)NC(=O)[C@H]([C@@H](C)CC)NC(=O)[C@H](Cc2ccc(-c3ccccc3)cc2)NC1=O [Compound 1726] ({CH2CO}-[Dap]Y(Carboxymethyl)DW[Nle][Bip]I[Orn][dL][Dab][Cha]VTCA-NH2; thioether N-14) | 13.1 nM |
| CC[C@H](C)[C@@H]1NC(=O)[C@H](Cc2ccc(-c3ccccc3)cc2)NC(=O)[C@H](C(C)C)NC(=O)[C@H](Cc2cccc(C)c2)NC(=O)[C@H](CC(=O)O)NC(=O)[C@H](Cc2ccc(OCC(=O)O)cc2)NC(=O)[C@H](CN)NC(=O)CSC[C@@H](C(=O)N[C@@H](C)C(N)=O)NC(=O)[C@H]([C@@H](C)O)NC(=O)[C@H](C(C)C)NC(=O)[C@H](CC2CCCCC2)NC(=O)[C@H](CCN)NC(=O)[C@@H](CC(C)C)NC(=O)[C@H](CCCN)NC1=O [Compound 1210] | 11.5 nM |
| CC(C)C[C@H]1NC(=O)[C@H](CCCN)NC(=O)[C@H](CCN)NC(=O)[C@H](Cc2ccc(-c3ccccc3)cc2)NC(=O)[C@H](C(C)C)NC(=O)[C@H](Cc2c[nH]c3ccccc23)NC(=O)[C@H](CC(=O)O)NC(=O)[C@H](Cc2ccc(O)cc2)NC(=O)[C@H](CC(N)=O)NC(=O)CSC[C@@H](C(=O)N[C@@H](C)C(N)=O)NC(=O)[C@H]([C@@H](C)O)NC(=O)[C@H](C(C)C)NC(=O)[C@H](CC2CCCCC2)NC(=O)[C@H](CCN)NC1=O [Compound 1379] | 33 nM |
| CC(C)C[C@H]1NC(=O)[C@H](CCCN)NC(=O)[C@H](C(C)C)NC(=O)[C@H](Cc2ccc(-c3ccccc3)cc2)NC(=O)[C@H](C(C)C)NC(=O)[C@H](Cc2ccc(O)cc2)NC(=O)[C@H](CC(=O)O)NC(=O)[C@H](Cc2ccc(OCC(=O)O)cc2)NC(=O)[C@H](CN)NC(=O)CSC[C@@H](C(=O)N[C@@H](CCN)C(N)=O)NC(=O)[C@H](CCCCN)NC(=O)[C@H](C(C)C)NC(=O)[C@H](CC2CCCCC2)NC(=O)[C@H](CCN)NC1=O [Compound 2033] ({CH2CO}-[Dap]Y(Carboxymethyl)DYV[Bip]V[Orn][dL][Dab][Cha]VKC[Dab]-NH2; thioether N-14) | 18.4 nM |
| CC(C)C[C@H]1NC(=O)[C@H](CCCN)NC(=O)[C@H](CCC(=O)O)NC(=O)[C@H](Cc2ccc(-c3ccccc3)cc2)NC(=O)[C@H](C(C)C)NC(=O)[C@H](Cc2cccc(Cl)c2)NC(=O)[C@H](CC(=O)O)NC(=O)[C@H](Cc2ccc(O)cc2)NC(=O)[C@H](Cc2ccncc2)NC(=O)CSC[C@@H](C(=O)N[C@@H](C)C(N)=O)NC(=O)[C@H]([C@@H](C)O)NC(=O)[C@H](C(C)C)NC(=O)[C@H](CC2CCCCC2)NC(=O)[C@H](CCN)NC1=O [Compound 1489] | 13.6 nM |

Results, then the compound that gave them:

| IC50 | Structure (SMILES) |
| --- | --- |
| 12 nM | CC(C)C[C@H]1NC(=O)[C@H](CCCN)NC(=O)[C@H](CCC(=O)O)NC(=O)[C@H](Cc2ccc(-c3ccccc3)cc2)NC(=O)[C@H](C(C)C)NC(=O)[C@H](Cc2ccc(F)cc2)NC(=O)[C@H](CC(=O)O)NC(=O)[C@H](Cc2ccc(OCC(=O)O)cc2)NC(=O)[C@H](CN)NC(=O)CSC[C@@H](C(=O)N[C@@H](C)C(N)=O)NC(=O)[C@H]([C@@H](C)O)NC(=O)[C@H](C(C)C)NC(=O)[C@H](CC2CCCCC2)NC(=O)[C@H](CCN)NC1=O [Compound 2147] |
| 10.4 nM | CCC(C)[C@@H]1NC(=O)[C@H](Cc2ccc(-c3ccccc3)cc2)NC(=O)[C@H](C(C)C)NC(=O)[C@H](Cc2cccc(C)c2)NC(=O)[C@H](CC(=O)O)NC(=O)[C@H](Cc2ccc(C(=O)O)cc2)NC(=O)[C@H](Cc2ccncc2)NC(=O)CSC[C@@H](C(=O)N[C@@H](CC(N)=O)C(N)=O)NC(=O)[C@H]([C@@H](C)O)NC(=O)[C@H](C(C)C)NC(=O)[C@H](CC2CCCCC2)NC(=O)[C@H](CCN)NC(=O)[C@@H](CC(C)C)NC(=O)[C@H](CCCN)NC1=O (stereo partly drawn) [Compound 2297] |
| 22.7 nM | CC(C)C[C@H]1NC(=O)[C@H](CCCN)NC(=O)[C@H](CCC(=O)O)NC(=O)[C@H](Cc2ccc(-c3ccccc3)cc2)NC(=O)[C@H](C(C)C)NC(=O)[C@H](Cc2c[nH]c3ccccc23)NC(=O)[C@H](CC(=O)O)NC(=O)[C@H](Cc2ccc(-c3cccc(C(=O)O)c3)cc2)NC(=O)[C@H](CN)NC(=O)CSC[C@@H](C(=O)N[C@@H](C)C(N)=O)NC(=O)[C@H]([C@@H](C)O)NC(=O)[C@H](C(C)C)NC(=O)[C@H](CC2CCCCC2)NC(=O)[C@H](CCN)NC1=O [Compound 2166] |
| 12.1 nM | C#CC[C@H](NC(=O)CNC(=O)[C@@H]1CSCC(=O)N[C@@H](CN)C(=O)N[C@@H](Cc2ccc(OCC(=O)O)cc2)C(=O)N[C@@H](CC(=O)O)C(=O)N[C@@H](Cc2cccc(C)c2)C(=O)N[C@@H](C(C)C)C(=O)N[C@@H](Cc2ccc(-c3ccccc3)cc2)C(=O)N[C@@H](CCCNC(N)=O)C(=O)N[C@@H](CCCN)C(=O)N[C@H](CC(C)C)C(=O)N[C@@H](CCN)C(=O)N[C@@H](CC2CCCCC2)C(=O)N[C@@H](C(C)C)C(=O)N[C@@H]([C@@H](C)O)C(=O)N1)C(=O)O [Compound 2263] ({CH2CO}-[Dap]Y(Carboxymethyl)D[Phe(3-Me)]V[Bip][Cit][Orn][dL][Dab][Cha]VTCG[Pra]-OH; thioether N-14) |
| 35.3 nM | CC(C)C[C@H]1NC(=O)[C@H](CCCN)NC(=O)[C@H](Cc2ccc(OCC(=O)O)cc2)NC(=O)[C@H](Cc2ccc(-c3ccccc3)cc2)NC(=O)[C@H](Cc2ccc(C(=O)O)cc2)NC(=O)[C@H](Cc2cccc(C(F)(F)F)c2)NC(=O)[C@H](CC(N)=O)NC(=O)[C@H](Cc2ccc(OCC(=O)O)cc2)NC(=O)[C@H](CN2CCOCC2)NC(=O)CSC[C@@H](C(=O)N[C@@H](CCN)C(N)=O)NC(=O)[C@H](CO)NC(=O)[C@H](C(C)C)NC(=O)[C@H](CC2CCCCC2)NC(=O)[C@H](CCN)NC1=O [Example 2724] ({CH2CO}-[Ala(morpholin-4-yl)]Y(Carboxymethyl)N[Phe(3-CF3)][Phe(4-COOH)][Bip]Y(Carboxymethyl)[Orn][dL][Dab][Cha]VSC[Dab]-NH2; thioether N-14) |
| 7.9 nM | Cc1cccc(C[C@@H]2NC(=O)[C@H](CC(=O)O)NC(=O)[C@H](Cc3ccc(C(=O)O)cc3)NC(=O)[C@H](Cc3ccncc3)NC(=O)CSC[C@@H](C(=O)N[C@@H](CO)C(N)=O)NC(=O)[C@H](CCC(N)=O)NC(=O)[C@H](C(C)C)NC(=O)[C@H](CC3CCCCC3)NC(=O)[C@H](CCN)NC(=O)[C@@H](CC(C)C)NC(=O)[C@H](CCCN)NC(=O)[C@H](Cc3ccc(OCC(=O)O)cc3)NC(=O)[C@H](Cc3ccc(-c4ccccc4)cc3)NC(=O)[C@H](Cc3ccc(OCC(=O)O)cc3)NC2=O)c1 [Compound 2312] ({CH2CO}-[4Pal][Phe(4-COOH)]D[Phe(3-Me)]Y(Carboxymethyl)[Bip]Y(Carboxymethyl)[Orn][dL][Dab][Cha]VQCS-NH2; thioether N-14) |
| 8.2 nM | CC(C)C[C@H]1NC(=O)[C@H](CCCN)NC(=O)[C@H](CCC(=O)O)NC(=O)[C@H](Cc2ccc(-c3ccccc3)cc2)NC(=O)[C@H](C(C)C)NC(=O)[C@H](Cc2c[nH]c3ccccc23)NC(=O)[C@H](CC(=O)O)NC(=O)[C@H](Cc2ccncc2)NC(=O)[C@H](Cc2ccncc2)NC(=O)CSC[C@@H](C(=O)N[C@@H](C)C(N)=O)NC(=O)[C@H]([C@@H](C)O)NC(=O)[C@H](C(C)C)NC(=O)[C@H](CC2CCCCC2)NC(=O)[C@H](CCN)NC1=O [Compound 2197] ({CH2CO}-[4Pal][4Pal]DWV[Bip]E[Orn][dL][Dab][Cha]VTCA-NH2; thioether N-14) |
| 1.7 nM | Cc1ccccc1-c1ccc(C[C@@H]2NC(=O)[C@H](Cc3cccc(C(F)(F)F)c3)NC(=O)[C@H](CC(=O)O)NC(=O)[C@H](Cc3ccc(C(=O)O)cc3)NC(=O)[C@H](CN3CCOCC3)NC(=O)CSC[C@@H](C(=O)N[C@@H](CCN)C(N)=O)NC(=O)[C@H](CCC(=O)O)NC(=O)[C@H](C(C)C)NC(=O)[C@H](CC3CCCCC3)NC(=O)[C@H](CCN)NC(=O)[C@@H](CC(C)C)NC(=O)[C@H](CCCN)NC(=O)[C@H](Cc3ccc(C(=O)O)cc3)NC(=O)[C@H](Cc3ccc(-c4ccccc4)cc3)NC2=O)cn1 [Example 2732] ({CH2CO}-[Ala(morpholin-4-yl)][Phe(4-COOH)]D[Phe(3-CF3)][Ala(6-(2-MePh)pyridin-3-yl)][Bip][Phe(4-COOH)][Orn][dL][Dab][Cha]VEC[Dab]-NH2; thioether N-14) |
